The values below come from US10758534B2 (Vertex Pharmaceuticals Incorporated, priority 2014, dated 2020).

The structures appear in SMILES notation. Like-named read-outs stand apart in the source and are kept apart here.

The assay concerns the target T1, F508del (Homo sapiens, UniProt P13569, DEL508-508).
T1 construct: expressed in transfected cells
Description: Protocol 2: FRET membrane potential optical assay (VIPR), identification of correction compounds. Format: cell-based. In short, it runs like this:
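FRET read-out (CC2-DMPE donor, DiSBAC2(3) voltage-sensitive acceptor) of membrane depolarization on VIPR II. Corrector candidates incubated 16 hrs at 37° C. with NIH3T3 cells expressing F508del; temperature correction at 27° C. as positive control; stimulation by 10 μM forskolin, 20 μM genistein, chloride-free gluconate bath.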

Setting [1] is: Table 3, compounds of Table 1 as modulators of CFTR activity, protocol not stated.
The mark [2] stands for this setting: F508del CFTR modulator activity, compounds of Table 1, read-out: EC30.

As usually defined, the EC30 is the concentration needed for an effect of 30%.

T1 sequence (P13569 with tags, fused parts or gaps DEL508-508): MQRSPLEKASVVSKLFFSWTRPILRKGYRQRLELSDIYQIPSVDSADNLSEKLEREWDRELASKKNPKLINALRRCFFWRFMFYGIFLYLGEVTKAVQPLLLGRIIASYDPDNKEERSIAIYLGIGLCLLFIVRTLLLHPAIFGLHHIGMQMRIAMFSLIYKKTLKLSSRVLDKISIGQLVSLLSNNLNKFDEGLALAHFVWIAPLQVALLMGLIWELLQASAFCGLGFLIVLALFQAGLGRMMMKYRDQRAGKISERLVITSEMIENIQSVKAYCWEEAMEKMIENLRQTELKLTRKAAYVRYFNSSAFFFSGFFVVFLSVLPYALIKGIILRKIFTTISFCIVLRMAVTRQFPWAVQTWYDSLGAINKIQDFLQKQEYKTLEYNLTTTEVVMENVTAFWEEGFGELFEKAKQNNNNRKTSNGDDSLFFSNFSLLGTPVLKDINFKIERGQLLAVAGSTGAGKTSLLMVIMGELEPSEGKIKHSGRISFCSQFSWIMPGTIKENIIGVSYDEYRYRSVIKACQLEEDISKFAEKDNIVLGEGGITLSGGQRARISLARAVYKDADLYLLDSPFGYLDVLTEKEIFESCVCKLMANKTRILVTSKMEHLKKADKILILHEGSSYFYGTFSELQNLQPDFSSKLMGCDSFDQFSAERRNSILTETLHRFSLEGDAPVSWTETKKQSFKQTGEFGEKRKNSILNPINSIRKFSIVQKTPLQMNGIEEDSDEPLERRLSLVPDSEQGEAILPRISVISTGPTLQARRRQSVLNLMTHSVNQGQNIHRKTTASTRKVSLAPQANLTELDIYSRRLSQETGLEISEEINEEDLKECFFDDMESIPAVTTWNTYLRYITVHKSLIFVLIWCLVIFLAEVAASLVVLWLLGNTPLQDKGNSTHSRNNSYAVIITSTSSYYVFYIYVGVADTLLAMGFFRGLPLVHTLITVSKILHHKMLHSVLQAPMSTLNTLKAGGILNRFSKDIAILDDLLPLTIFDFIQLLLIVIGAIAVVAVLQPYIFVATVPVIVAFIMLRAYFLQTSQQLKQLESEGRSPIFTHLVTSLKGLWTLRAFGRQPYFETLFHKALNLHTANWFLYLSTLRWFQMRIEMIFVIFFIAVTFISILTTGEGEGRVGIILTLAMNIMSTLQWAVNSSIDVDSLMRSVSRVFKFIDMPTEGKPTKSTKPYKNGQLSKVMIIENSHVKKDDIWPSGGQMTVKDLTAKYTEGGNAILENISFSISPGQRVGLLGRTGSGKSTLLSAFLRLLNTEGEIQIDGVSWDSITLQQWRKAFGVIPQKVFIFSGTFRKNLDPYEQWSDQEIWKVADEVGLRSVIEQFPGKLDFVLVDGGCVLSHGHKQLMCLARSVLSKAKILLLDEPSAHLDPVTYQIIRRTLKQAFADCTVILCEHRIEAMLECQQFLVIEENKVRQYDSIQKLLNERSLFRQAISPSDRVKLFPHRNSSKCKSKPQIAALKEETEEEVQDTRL

`COc1ncccc1S(=O)(=O)NC(=O)C1(C)c2ccccc2CN1Cc1c(C)cc(C)cc1C` (stereo not drawn) [Compound 765, N-[(2-methoxy-3-pyridyl)sulfonyl]-1-methyl-2-[(2,4,6-trimethylphenyl)methyl]isoindoline-1-carboxamide]: under setting [1], the EC30 entry was “++ (“++” means between 3 uM and 10 uM)”.

On to `Cc1cc(C)c(Cn2c(C(=O)NS(=O)(=O)c3cccc(N)c3)cc3cc(C)ccc32)c(C)c1` [Compound 259, N-(3-aminophenyl)sulfonyl-5-methyl-1-[(2,4,6-trimethylphenyl)methyl]indole-2-carboxamide], for which the EC30 entry under setting [1] is listed as “+++ (“+++” means <3 uM)”.

Turning to `Cc1cc(C)c(Oc2nc(-c3ccc(Cl)c(OCC(C)C)c3)ccc2C(=O)NS(=O)(=O)c2ccc[nH]c2=O)c(C)c1` [Compound 136, 6-(4-chloro-3-isobutoxy-phenyl)-N-[(2-oxo-1H-pyridin-3-yl)sulfonyl]-2-(2,4,6-trimethylphenoxy)pyridine-3-carboxamide], the EC30 result under setting [1] is reported as “+++ (“+++” means <3 uM)”.

As for `Cc1cn(-c2ccc(C(=O)NS(=O)(=O)c3cccnc3N)c(N3C[C@@H](C)CC3(C)C)n2)nc1OCC(C)(C)C` [Compound 2694], the 30% effect concentration (EC30) under setting [2] was < 3 µM.

Regarding `CC(C)COc1ccc(F)c(-c2ccc(C(=O)NS(=O)(=O)c3ccc[nH]c3=O)c(N3[C@H](C)CC[C@@H]3C)n2)c1` [Compound 721, 2-[(2S,5R)-2,5-dimethylpyrrolidin-1-yl]-6-(2-fluoro-5-isobutoxy-phenyl)-N-[(2-oxo-1H-pyridin-3-yl)sulfonyl]pyridine-3-carboxamide], under setting [1], the EC30 result is “++ (“++” means between 3 uM and 10 uM)”.

Turning to `C[C@@H]1CN(c2nc(-c3cncc4ccccc34)ccc2C(=O)NS(=O)(=O)c2cccnc2N)C(C)(C)C1` [Compound 2418, N-[(2-amino-3-pyridyl)sulfonyl]-6-(4-isoquinolyl)-2-[(4S)-2,2,4-trimethylpyrrolidin-1-yl]pyridine-3-carboxamide], the EC30 under setting [2] was < 3 µM.

`Cc1cc(C)c(Cn2nc(C(C)(C)C)c(C)c2C(=O)NS(=O)(=O)c2cccc(N)n2)c(C)c1` [Compound 356, N-[(6-amino-2-pyridyl)sulfonyl]-5-tert-butyl-4-methyl-2-[(2,4,6-trimethylphenyl)methyl]pyrazole-3-carboxamide]: the concentration for an effect of 30% (EC30) result under setting [1] is recorded as “+++ (“+++” means <3 uM)”.

Take `CCOc1ccc(-c2ccc(C(=O)NS(=O)(=O)c3cccc(N)n3)c(N3CC(C)CC3(C)C)n2)c(C)c1` (stereo not drawn) [Compound 536, N-[(6-amino-2-pyridyl)sulfonyl]-6-(4-ethoxy-2-methyl-phenyl)-2-(2,2,4-trimethylpyrrolidin-1-yl)pyridine-3-carboxamide]: the EC30 entry under setting [1] was “+++ (“+++” means <3 uM)”.

On to `CC1CN(c2ncccc2C(=O)NS(=O)(=O)c2cccc(Oc3ccc4c(c3)CCC4=O)n2)C(C)(C)C1` (stereo not drawn) [Compound 2733], for which, under setting [2], the EC30 was 3 to 10 µM.

Turning to `COc1ccccc1-c1ccc(C(=O)NS(=O)(=O)c2ccc[nH]c2=O)c(N2C[C@@H](C)CC2(C)C)n1` [Compound 2485, 6-(2-methoxyphenyl)-N-[(2-oxo-1H-pyridin-3-yl)sulfonyl]-2-[(4S)-2,2,4-trimethylpyrrolidin-1-yl]pyridine-3-carboxamide], under setting [2], the EC30 was < 3 µM.

On to `Cc1ccc(-c2ccc(C(=O)NS(=O)(=O)c3nccnc3N)c(Oc3ccc(C)cc3C)n2)cc1` [Compound 607, N-(3-aminopyrazin-2-yl)sulfonyl-2-(2,4-dimethylphenoxy)-6-(p-tolyl)pyridine-3-carboxamide], for which the EC30 result under setting [1] is on record as “+++ (“+++” means <3 uM)”.

Take `CC1CN(c2ncccc2C(=O)NS(=O)(=O)c2cccc(O[C@H]3CCN(Cc4ccccc4)C3)n2)C(C)(C)C1` (stereo partly drawn) [Compound 2078, N—[[6-[(3S)-1-benzylpyrrolidin-3-yl]oxy-2-pyridyl]sulfonyl]-2-(2,2,4-trimethylpyrrolidin-1-yl)pyridine-3-carboxamide]: the concentration for an effect of 30% (EC30) under setting [2] lay within 3 to 10 µM.

As to `CCOc1cc(-c2ccc(C(=O)NS(=O)(=O)c3cccc(N)n3)c(N3C[C@@H](C)CC3(C)C)n2)cc(C)n1` [Compound 2364, N-[(6-amino-2-pyridyl)sulfonyl]-6-(2-ethoxy-6-methyl-4-pyridyl)-2-[(4S)-2,2,4-trimethylpyrrolidin-1-yl]pyridine-3-carboxamide], the EC30 under setting [2] was < 3 µM.

For `CCOc1cc(C)cc(-c2ccc(C(=O)NS(=O)(=O)c3cc[nH]n3)c(N3C[C@@H](C)CC3(C)C)n2)n1` [Compound 2487, 6-(6-ethoxy-4-methyl-2-pyridyl)-N-(1H-pyrazol-3-ylsulfonyl)-2-[(4S)-2,2,4-trimethylpyrrolidin-1-yl]pyridine-3-carboxamide], under setting [2], the EC30 was < 3 µM.

`Cc1cc(C)c(Oc2nc(-c3ccccc3)ccc2C(=O)NS(=O)(=O)c2ccn[nH]2)c(C)c1` [Compound 784, 6-phenyl-N-(1H-pyrazol-5-ylsulfonyl)-2-(2,4,6-trimethylphenoxy)pyridine-3-carboxamide]: the 30% effect concentration (EC30) entry under setting [1] is on record as “+++ (“+++” means <3 uM)”.

For the compound `Cc1cccc(C)c1Oc1nc(-c2cc(F)cc(OCC(C)C)c2)ccc1C(=O)NS(=O)(=O)c1ccn[nH]1` [Compound 671, 2-(2,6-dimethylphenoxy)-6-(3-fluoro-5-isobutoxy-phenyl)-N-(1H-pyrazol-5-ylsulfonyl)pyridine-3-carboxamide], the EC30 entry under setting [1] is recorded as “+++ (“+++” means <3 uM)”.

Consider `CCC1CCN(c2nc(-c3cc(F)cc(OCC(C)C)c3)ccc2C(=O)NS(=O)(=O)c2cccc(N)n2)CC1` [Compound 615, N-[(6-amino-2-pyridyl)sulfonyl]-2-(4-ethyl-1-piperidyl)-6-(3-fluoro-5-isobutoxy-phenyl)pyridine-3-carboxamide], for which the concentration for an effect of 30% (EC30) entry under setting [1] is reported as “+++ (“+++” means <3 uM)”.

As to `CCOc1cc(F)cc(-c2ccc(C(=O)NS(=O)(=O)c3cc[nH]n3)c(Oc3c(C)cc(C)cc3C)n2)c1` [Compound 585, 6-(3-ethoxy-5-fluoro-phenyl)-N-(1H-pyrazol-3-ylsulfonyl)-2-(2,4,6-trimethylphenoxy)pyridine-3-carboxamide], the EC30 result under setting [1] is given as “+++ (“+++” means <3 uM)”.

Take `Cc1cc(C)nc(Nc2cccc(S(=O)(=O)NC(=O)c3cccnc3N3CC(C)CC3(C)C)n2)c1` (stereo not drawn) [Compound 2160, N—[[6-[(4,6-dimethyl-2-pyridyl)amino]-2-pyridyl]sulfonyl]-2-(2,2,4-trimethylpyrrolidin-1-yl)pyridine-3-carboxamide]: under setting [2], the EC30 was 3 to 10 µM.

Consider `CC1CN(c2ncccc2C(=O)NS(=O)(=O)c2cccc(NC3CCN(Cc4ccccc4)C3)n2)C(C)(C)C1` (stereo not drawn) [Compound 2407, N—[[6-[(1-benzylpyrrolidin-3-yl)amino]-2-pyridyl]sulfonyl]-2-(2,2,4-trimethylpyrrolidin-1-yl)pyridine-3-carboxamide], for which the EC30 under setting [2] was in the range of 3 to 10 µM.

Turning to `Cc1ccc(Oc2nc(-c3ccccc3)ccc2C(=O)NS(=O)(=O)c2cccc(N)n2)c(C)c1` [Compound 340, N-[(6-amino-2-pyridyl)sulfonyl]-2-(2,4-dimethylphenoxy)-6-phenyl-pyridine-3-carboxamide], the concentration for an effect of 30% (EC30) result under setting [1] is listed as “+++ (“+++” means <3 uM)”.

Consider `CC(C)COc1cc(F)cc(-c2ccc(C(=O)NS(=O)(=O)c3ccc[nH]c3=O)c(N3C[C@H](C)CC3(C)C)n2)c1` [Compound 605, 6-(3-fluoro-5-isobutoxy-phenyl)-N-[(2-oxo-1H-pyridin-3-yl)sulfonyl]-2-[(4R)-2,2,4-trimethylpyrrolidin-1-yl]pyridine-3-carboxamide], for which the 30% effect concentration (EC30) entry under setting [1] is “+++ (“+++” means <3 uM)”.

Take `CCOCCOc1ccc(C(=O)NS(=O)(=O)c2cccnc2N)c(N2C[C@@H](C)CC2(C)C)n1` [Compound 2699]: the 30% effect concentration (EC30) under setting [2] was < 3 µM.

Turning to `CC(C)COc1cc(F)cc(-c2ccc(C(=O)NS(=O)(=O)c3cccc(N)n3)c(N3CCC(C(C)(C)C)C3)n2)c1` (stereo not drawn) [Compound 611, N-[(6-amino-2-pyridyl)sulfonyl]-2-(3-tert-butylpyrrolidin-1-yl)-6-(3-fluoro-5-isobutoxy-phenyl)pyridine-3-carboxamide], the EC30 result under setting [1] is listed as “+++ (“+++” means <3 uM)”.

Turning to `CC1CN(c2ncccc2C(=O)NS(=O)(=O)c2cccc(OCc3ccccc3Cl)n2)C(C)(C)C1` (stereo not drawn) [Compound 2273, N—[[6-[(2-chlorophenyl)methoxy]-2-pyridyl]sulfonyl]-2-(2,2,4-trimethylpyrrolidin-1-yl)pyridine-3-carboxamide], the EC30 under setting [2] is < 3 µM.

Consider `CNc1cccc(S(=O)(=O)NC(=O)c2ccc(C)nc2Oc2c(C)cc(C)cc2C)n1` [Compound 646, 6-methyl-N-[[6-(methylamino)-2-pyridyl]sulfonyl]-2-(2,4,6-trimethylphenoxy)pyridine-3-carboxamide], for which, under setting [1], the EC30 result was “++ (“++” means between 3 uM and 10 uM)”.

Turning to `Cc1cc(C)c(Oc2nc(C(F)(F)F)ccc2C(=O)NS(=O)(=O)c2cccc(N)n2)c(C)c1` [Compound 175, N-[(6-amino-2-pyridyl)sulfonyl]-6-(trifluoromethyl)-2-(2,4,6-trimethylphenoxy)pyridine-3-carboxamide], the EC30 entry under setting [1] is “++ (“++” means between 3 uM and 10 uM)”.

With `Cc1ccccc1-c1ccc(C(=O)NS(=O)(=O)c2cccc(N)n2)c(N2CC(C)CC2(C)C)n1` (stereo not drawn) [Compound 761, N-[(6-amino-2-pyridyl)sulfonyl]-6-(o-tolyl)-2-(2,2,4-trimethylpyrrolidin-1-yl)pyridine-3-carboxamide], under setting [1], the concentration for an effect of 30% (EC30) entry is “+++ (“+++” means <3 uM)”.

With `CC(C)Oc1ccc(-c2ccc(C(=O)NS(=O)(=O)c3cccc(N)n3)c(N3CCC[C@@H](C)C3)n2)cn1` [Compound 757, N-[(6-amino-2-pyridyl)sulfonyl]-6-(6-isopropoxy-3-pyridyl)-2-[(3R)-3-methyl-1-piperidyl]pyridine-3-carboxamide], the concentration for an effect of 30% (EC30) result under setting [1] is reported as “+++ (“+++” means <3 uM)”.

In the case of `COc1cccc(Oc2nc(C(C)(C)C)ccc2C(=O)NS(=O)(=O)c2ccccc2)c1` [Compound 101, N-(benzenesulfonyl)-6-tert-butyl-2-(3-methoxyphenoxy)pyridine-3-carboxamide], the EC30 result under setting [1] was “+++ (“+++” means <3 uM)”.
